Results reported in US9095594B2, “Pharmaceutical compositions comprising beta-lactam antibiotic, sulbactam and beta-lactamase inhibitor” (Wockhardt Ltd., priority 2011, dated 2015).
Where a name gives a salt, the structure may show the parent alone. Read-outs that look alike come from different tables or passages of the source.

Experiments:
[1] = system: A. baumanii S-15 (ESBL strain); experiment: Agar dilution MIC (CLSI); format: cell-based; conditions: for MIC: Acinetobacter baumannii
Procedure: (§1) In a typical study, overnight grown bacterial cultures were diluted appropriately and inoculated on the agar media containing doubling dilutions of the antibiotic. Observation for growth or no growth was performed after 16-20 hours of incubation at 35±2° C. in ambient air.

[2] = system: A. baumanii 13304 (ESBL strain); experiment: Agar dilution MIC (CLSI); format: cell-based; conditions: for MIC: Acinetobacter baumannii
Procedure: as §1

[3] = system: A. baumanii S-4 (ESBL strain); experiment: Agar dilution MIC (CLSI); format: cell-based; conditions: for MIC: Acinetobacter baumannii
Procedure: as §1

[4] = system: A. baumanii S-8 (ESBL strain); experiment: Agar dilution MIC (CLSI); format: cell-based; conditions: for MIC: Acinetobacter baumannii
Procedure: as §1

[5] = system: A. baumanii S-3 (ESBL strain); experiment: Agar dilution MIC (CLSI); format: cell-based; conditions: for MIC: Acinetobacter baumannii
Procedure: as §1

[6] = system: A. baumanii 13305 (ESBL strain); experiment: Agar dilution MIC (CLSI); format: cell-based; conditions: for MIC: Acinetobacter baumannii
Procedure: as §1

[7] = system: A. baumanii S-10 (ESBL strain); experiment: Agar dilution MIC (CLSI); format: cell-based; conditions: for MIC: Acinetobacter baumannii
Procedure: as §1

[8] = system: A. baumanii 13301 (ESBL strain); experiment: Agar dilution MIC (CLSI); format: cell-based; conditions: for MIC: Acinetobacter baumannii
Procedure: as §1

ESBL strains = experiment: Agar dilution MIC (CLSI), text summary over the strains; format: cell-based, A. baumanii
Procedure: as §1

[9] = alone, A. baumanii 13304, read-out: MIC
[10] = alone, A. baumanii S-8, read-out: MIC
[11] = alone, A. baumanii S-3, read-out: MIC
[12] = alone, A. baumanii 13305, read-out: MIC
[13] = alone, A. baumanii S-10, read-out: MIC
[14] = alone, A. baumanii 13301, read-out: MIC

CO/N=C(\C(=O)N[C@@H]1C(=O)N2C(C(=O)[O-])=C(C[N+]3(C)CCCC3)CS[C@H]12)c1csc(N)n1 [Cefepime, cefepime]
0.5 µg/mL: MIC of beta-lactam with NXL-104 (8 mcg/ml) + Sulbactam (4 mcg/ml) ([1]; A. baumanii S-15, NXL-104 8 mcg/ml + Sulbactam 4 mcg/ml) | MIC of beta-lactam with NXL-104 (8 mcg/ml) + Sulbactam (4 mcg/ml) ([3]; A. baumanii S-4, NXL-104 8 mcg/ml + Sulbactam 4 mcg/ml) | MIC of beta-lactam with NXL-104 (6 mcg/ml) + Sulbactam (6 mcg/ml) ([4]; A. baumanii S-8) | MIC of beta-lactam with NXL-104 (8 mcg/ml) + Sulbactam (4 mcg/ml) ([4]; A. baumanii S-8) | MIC of beta-lactam with NXL-104 (8 mcg/ml) + Sulbactam (4 mcg/ml) ([5]; A. baumanii S-3)
8 µg/mL: MIC of beta-lactam with NXL-104 (4 mcg/ml) + Sulbactam (8 mcg/ml) ([1]; A. baumanii S-15, NXL-104 4 mcg/ml + Sulbactam 8 mcg/ml) | MIC of beta-lactam with NXL-104 (4 mcg/ml) + Sulbactam (8 mcg/ml) ([4]; A. baumanii S-8) | MIC of beta-lactam with NXL-104 (4 mcg/ml) + Sulbactam (8 mcg/ml) ([7]; A. baumanii S-10)
0.12 µg/mL: MIC of beta-lactam with NXL-104 (6 mcg/ml) + Sulbactam (6 mcg/ml) ([1]; A. baumanii S-15, NXL-104 6 mcg/ml + Sulbactam 6 mcg/ml)
1 µg/mL: MIC of beta-lactam with NXL-104 (6 mcg/ml) + Sulbactam (6 mcg/ml) ([3]; A. baumanii S-4, NXL-104 6 mcg/ml + Sulbactam 6 mcg/ml) | MIC of beta-lactam with NXL-104 (6 mcg/ml) + Sulbactam (6 mcg/ml) ([5]; A. baumanii S-3)
<0.06 µg/mL: MIC of beta-lactam with NXL-104 (4 mcg/ml) + Sulbactam (4 mcg/ml) ([2]; A. baumanii 13304) | MIC of beta-lactam with NXL-104 (4 mcg/ml) + Sulbactam (8 mcg/ml) ([2]; A. baumanii 13304) | MIC of beta-lactam with NXL-104 (6 mcg/ml) + Sulbactam (6 mcg/ml) ([2]; A. baumanii 13304) | MIC of beta-lactam with NXL-104 (8 mcg/ml) + Sulbactam (4 mcg/ml) ([2]; A. baumanii 13304) | MIC of beta-lactam with NXL-104 (4 mcg/ml) + Sulbactam (4 mcg/ml) ([6]; A. baumanii 13305) | MIC of beta-lactam with NXL-104 (4 mcg/ml) + Sulbactam (8 mcg/ml) ([6]; A. baumanii 13305) | MIC of beta-lactam with NXL-104 (6 mcg/ml) + Sulbactam (6 mcg/ml) ([6]; A. baumanii 13305) | MIC of beta-lactam with NXL-104 (8 mcg/ml) + Sulbactam (4 mcg/ml) ([6]; A. baumanii 13305) | MIC of beta-lactam with NXL-104 (4 mcg/ml) + Sulbactam (4 mcg/ml) ([8]; A. baumanii 13301) | MIC of beta-lactam with NXL-104 (4 mcg/ml) + Sulbactam (8 mcg/ml) ([8]; A. baumanii 13301) | MIC of beta-lactam with NXL-104 (6 mcg/ml) + Sulbactam (6 mcg/ml) ([8]; A. baumanii 13301) | MIC of beta-lactam with NXL-104 (8 mcg/ml) + Sulbactam (4 mcg/ml) ([8]; A. baumanii 13301)
4 µg/mL: MIC of beta-lactam with NXL-104 (4 mcg/ml) + Sulbactam (8 mcg/ml) ([3]; A. baumanii S-4, NXL-104 4 mcg/ml + Sulbactam 8 mcg/ml) | MIC of beta-lactam with NXL-104 (4 mcg/ml) + Sulbactam (8 mcg/ml) ([5]; A. baumanii S-3) | MIC of beta-lactam in presence of Sulbactam (4 to 8 mcg/ml) ([6]; A. baumanii 13305)
<0.03 µg/mL: MIC of beta-lactam with NXL-104 (6 mcg/ml) + Sulbactam (6 mcg/ml) ([7]; A. baumanii S-10) | MIC of beta-lactam with NXL-104 (8 mcg/ml) + Sulbactam (4 mcg/ml) ([7]; A. baumanii S-10)

CO/N=C(\C(=O)N[C@@H]1C(=O)N2C(C(=O)[O-])=C(C[n+]3cccc4c3CCC4)CS[C@H]12)c1csc(N)n1 [Cefpirome, cefpirome]
less than 0.03 mcg/ml: MIC in presence of sulbactam and NXL-104, lowest value ("as low as") (ESBL strains)
>32 µg/mL: MIC of beta-lactam in presence of Sulbactam (4 to 8 mcg/ml) ([5]; A. baumanii S-3, Sulbactam 4 to 8 mcg/ml) | MIC of beta-lactam in presence of Sulbactam (4 to 8 mcg/ml) ([7]; A. baumanii S-10, Sulbactam 4 to 8 mcg/ml) | MIC of beta-lactam in presence of Sulbactam (4 to 8 mcg/ml) ([8]; A. baumanii 13301, Sulbactam 4 to 8 mcg/ml)
32 µg/mL: MIC of beta-lactam in presence of Sulbactam (4 to 8 mcg/ml) ([2]; A. baumanii 13304, Sulbactam 4 to 8 mcg/ml) | MIC [2, 9] | MIC of beta-lactam in presence of Sulbactam (4 to 8 mcg/ml) ([4]; A. baumanii S-8, Sulbactam 4 to 8 mcg/ml) | MIC [4, 10] | MIC ([5]; A. baumanii S-3, NXL-104 4 to 8 mcg/ml, read-out: MIC of beta-lactam in presence of NXL-104 (4 to 8 mcg/ml))
> 32 µg/mL: MIC [5, 11] | MIC [7, 13] | MIC ([8]; A. baumanii 13301, NXL-104 4 to 8 mcg/ml, read-out: MIC of beta-lactam in presence of NXL-104 (4 to 8 mcg/ml)) | MIC [8, 14]
1 µg/mL: MIC of beta-lactam with NXL-104 (6 mcg/ml) + Sulbactam (6 mcg/ml) ([5]; A. baumanii S-3)
8 µg/mL: MIC of beta-lactam with NXL-104 (4 mcg/ml) + Sulbactam (8 mcg/ml) ([4]; A. baumanii S-8) | MIC of beta-lactam in presence of Sulbactam (4 to 8 mcg/ml) ([6]; A. baumanii 13305) | MIC of beta-lactam with NXL-104 (4 mcg/ml) + Sulbactam (8 mcg/ml) ([7]; A. baumanii S-10)
<0.03 µg/mL: MIC of beta-lactam with NXL-104 (6 mcg/ml) + Sulbactam (6 mcg/ml) ([7]; A. baumanii S-10) | MIC of beta-lactam with NXL-104 (8 mcg/ml) + Sulbactam (4 mcg/ml) ([7]; A. baumanii S-10)
<0.06 µg/mL: MIC of beta-lactam with NXL-104 (4 mcg/ml) + Sulbactam (4 mcg/ml) ([2]; A. baumanii 13304) | MIC of beta-lactam with NXL-104 (4 mcg/ml) + Sulbactam (8 mcg/ml) ([2]; A. baumanii 13304) | MIC of beta-lactam with NXL-104 (6 mcg/ml) + Sulbactam (6 mcg/ml) ([2]; A. baumanii 13304) | MIC of beta-lactam with NXL-104 (8 mcg/ml) + Sulbactam (4 mcg/ml) ([2]; A. baumanii 13304) | MIC of beta-lactam with NXL-104 (4 mcg/ml) + Sulbactam (4 mcg/ml) ([6]; A. baumanii 13305) | MIC of beta-lactam with NXL-104 (4 mcg/ml) + Sulbactam (8 mcg/ml) ([6]; A. baumanii 13305) | MIC of beta-lactam with NXL-104 (6 mcg/ml) + Sulbactam (6 mcg/ml) ([6]; A. baumanii 13305) | MIC of beta-lactam with NXL-104 (8 mcg/ml) + Sulbactam (4 mcg/ml) ([6]; A. baumanii 13305) | MIC of beta-lactam with NXL-104 (4 mcg/ml) + Sulbactam (4 mcg/ml) ([8]; A. baumanii 13301) | MIC of beta-lactam with NXL-104 (4 mcg/ml) + Sulbactam (8 mcg/ml) ([8]; A. baumanii 13301) | MIC of beta-lactam with NXL-104 (6 mcg/ml) + Sulbactam (6 mcg/ml) ([8]; A. baumanii 13301) | MIC of beta-lactam with NXL-104 (8 mcg/ml) + Sulbactam (4 mcg/ml) ([8]; A. baumanii 13301)
4 µg/mL: MIC of beta-lactam with NXL-104 (4 mcg/ml) + Sulbactam (8 mcg/ml) ([5]; A. baumanii S-3)
0.5 µg/mL: MIC of beta-lactam with NXL-104 (6 mcg/ml) + Sulbactam (6 mcg/ml) ([4]; A. baumanii S-8) | MIC of beta-lactam with NXL-104 (8 mcg/ml) + Sulbactam (4 mcg/ml) ([4]; A. baumanii S-8) | MIC of beta-lactam with NXL-104 (8 mcg/ml) + Sulbactam (4 mcg/ml) ([5]; A. baumanii S-3)
16 µg/mL: MIC ([2]; A. baumanii 13304, NXL-104 4 to 8 mcg/ml, read-out: MIC of beta-lactam in presence of NXL-104 (4 to 8 mcg/ml)) | MIC of beta-lactam with NXL-104 (4 mcg/ml) + Sulbactam (4 mcg/ml) ([4]; A. baumanii S-8, NXL-104 4 mcg/ml + Sulbactam 4 mcg/ml) | MIC ([4]; A. baumanii S-8, NXL-104 4 to 8 mcg/ml, read-out: MIC of beta-lactam in presence of NXL-104 (4 to 8 mcg/ml)) | MIC of beta-lactam with NXL-104 (4 mcg/ml) + Sulbactam (4 mcg/ml) ([5]; A. baumanii S-3, NXL-104 4 mcg/ml + Sulbactam 4 mcg/ml) | MIC ([6]; A. baumanii 13305, NXL-104 4 to 8 mcg/ml, read-out: MIC of beta-lactam in presence of NXL-104 (4 to 8 mcg/ml)) | MIC [6, 12] | MIC of beta-lactam with NXL-104 (4 mcg/ml) + Sulbactam (4 mcg/ml) ([7]; A. baumanii S-10, NXL-104 4 mcg/ml + Sulbactam 4 mcg/ml) | MIC ([7]; A. baumanii S-10, NXL-104 4 to 8 mcg/ml, read-out: MIC of beta-lactam in presence of NXL-104 (4 to 8 mcg/ml))

NC(=O)[C@@H]1CC[C@@H]2CN1C(=O)N2OS(=O)(=O)O [NXL-104, sodium salt of trans-7-oxo-6-(sulphooxy)-1,6-diazabicyclo-[3.2.1]-octane-2-carboxamide]
16 µg/mL: MIC of NXL-104 in presence of Sulbactam (4 mcg/ml) ([1]; A. baumanii S-15, Sulbactam 4 mcg/ml) | MIC of NXL-104 in presence of Sulbactam (4 mcg/ml) ([3]; A. baumanii S-4, Sulbactam 4 mcg/ml) | MIC of NXL-104 in presence of Sulbactam (4 mcg/ml) ([4]; A. baumanii S-8, Sulbactam 4 mcg/ml) | MIC of NXL-104 in presence of Sulbactam (4 mcg/ml) ([5]; A. baumanii S-3, Sulbactam 4 mcg/ml) | MIC of NXL-104 in presence of Sulbactam (4 mcg/ml) ([7]; A. baumanii S-10, Sulbactam 4 mcg/ml)
> 64 µg/mL: MIC ([1]; alone, A. baumanii S-15, read-out: MIC) | MIC [2, 9] | MIC ([3]; alone, A. baumanii S-4, read-out: MIC) | MIC [4, 10] | MIC [5, 11] | MIC [6, 12] | MIC [7, 13] | MIC [8, 14]
2 µg/mL: MIC of NXL-104 in presence of Sulbactam (4 mcg/ml) ([2]; A. baumanii 13304, Sulbactam 4 mcg/ml) | MIC of NXL-104 in presence of Sulbactam (4 mcg/ml) ([6]; A. baumanii 13305, Sulbactam 4 mcg/ml) | MIC of NXL-104 in presence of Sulbactam (4 mcg/ml) ([8]; A. baumanii 13301, Sulbactam 4 mcg/ml)

CC1(C)[C@H](C(=O)O)N2C(=O)C[C@H]2S1(=O)=O [Sulbactam, sulbactam]
16 µg/mL: MIC [6]
> 32 µg/mL: MIC [1] | MIC [2] | MIC [3] | MIC [4] | MIC [5] | MIC [7] | MIC [8]
